Here are results for eight compounds from patent US9814785B2, “Hepatitis C virus liposome vaccine” (Saitama Medical University, priority 2010, dated 2017).

Where a SMILES comes first, the peptide text is derived from it.

In data set [1] the test system is RMA-HHD target cells pulsed with peptide. To be noted: for CTL cytotoxicity to target cell presenting each peptide: immunogenicity of each peptide in each pool, FIG. 2; for CTL cytotoxicity to target cell presenting each peptide / induction of cytotoxic T cells: 51Cr release; for induction of cytotoxic T cells: peptide-bound liposome prepared from the single peptide, FIG. 3.

The subject of data set [2] is T cells that produce interferon gamma (IFN-γ) antigen-specifically. As to the kind of experiment: ELISPOT (IFN-γ) with splenocytes of immunized mouse. The data set is classed as in vivo, HHD mouse. Particulars: for IFN-γ production due to the stimulation with each peptide: immunogenicity of each peptide in each pool, FIG. 2.
The subject of data set [3] is recombinant vaccinia virus that expresses HCV-NS3 gene (VV-NS3). On the set-up: species or system HHD mouse. Particulars: mouse, in vivo.
Setting [4] is: immunization with recombinant virus VV-NS3, ELISPOT, FIG. 7.

In the case of `CC[C@H](C)[C@H](NC(=O)[C@H](CC(C)C)NC(=O)[C@H](CS)NC(=O)[C@H](CCCCN)NC(=O)[C@H](Cc1c[nH]c2ccccc12)NC(=O)[C@H](CCSC)NC(=O)[C@@H](N)CCC(N)=O)C(=O)N[C@@H](CCCNC(=N)N)C(=O)N[C@@H](CC(C)C)C(=O)O` [compound 8, Gln Met Trp Lys Cys Leu Ile Arg Leu], the “CTL cytotoxicity to target cell presenting each peptide” value (from here on “CTL cytotoxicity”) in data set [1] is “strongly induced antigen-specific CTL”.

As to `CC[C@H](C)[C@H](NC(=O)[C@@H](NC(=O)[C@H](CO)NC(=O)[C@@H](NC(=O)[C@H](CC(=O)O)NC(=O)[C@H](CC(C)C)NC(=O)CN)C(C)C)C(C)C)C(=O)N1CCC[C@H]1C(=O)N[C@H](C(=O)O)[C@@H](C)O` [compound 14, Gly Leu Asp Val Ser Val Ile Pro Thr] (H-GLDVSVIPT-OH), in data set [2] (ELISPOT), the “IFN-γ production due to the stimulation with each peptide” value (shortened to “IFN-γ production due to the stimulation”) is “confirmed”. Besides, the “CTL cytotoxicity” value in data set [1] is recorded as “strongly induced antigen-specific CTL”.

Turning to `CC[C@H](C)[C@H](NC(=O)[C@H](CS)NC(=O)[C@@H](NC(=O)[C@H](C)NC(=O)[C@H](CC(C)C)NC(=O)[C@@H](N)Cc1ccccc1)[C@@H](C)O)C(=O)N[C@@H](CC(N)=O)C(=O)NCC(=O)N[C@H](C(=O)O)C(C)C` [compound 23, Phe Leu Ala Thr Cys Ile Asn Gly Val] (H-FLATCINGV-OH), the “IFN-γ production due to the stimulation” value in data set [2] (ELISPOT) is reported as “confirmed”. Moreover, in data set [1], the “CTL cytotoxicity” value is “strongly induced antigen-specific CTL” and the “induction of cytotoxic T cells” value is on record as “confirmed”.

In the case of `CSCC[C@H](NC(=O)[C@@H](N)Cc1ccc(O)cc1)C(=O)N[C@@H](CC(N)=O)C(=O)N[C@H](C(=O)N1CCC[C@H]1C(=O)NCC(=O)N[C@@H](CC(C)C)C(=O)N1CCC[C@H]1C(=O)N[C@H](C(=O)O)C(C)C)[C@@H](C)O` [peptide #3, Tyr Met Asn Thr Pro Gly Leu Pro Val] (H-YMNTPGLPV-OH), the “vaccine effect of peptide-bound liposome prepared from single peptide” value in data set [3] is recorded as “remarkable vaccine effect”. For the same compound, the “immunogenicity of liposome-bound peptide” value in data set [2] (F1 mouse (HHD male x C57BL/6 female) expressing HLA-A*0201 and H-2b, ELISPOT, FIG. 5) is listed as “high immunogenicity of the same level as that of mouse epitope 1630-1637”. For the same compound, in data set [2] (setting [4]), the “boost effect on immunization with VV-NS3” value was “absent” and the “immunogenicity of peptide on immunization with VV-NS3” value is on record as “not exhibited”. Moreover, in data set [2] (immunization with recombinant viruses Adex1CA3269 and VV-NS3, peptide not liposome-bound, FIG. 6), the “immunogenicity of peptide on immunization with whole NS3” value was “low immunogenicity and low”. Moreover, the “IFN-γ production due to the stimulation” value in data set [2] (ELISPOT) is reported as “confirmed”. Further, the IFN-γ production result in data set [2] (peptide-bound liposome prepared from the single peptide, ELISPOT, FIG. 3) was “particularly remarkable”. In addition, the “CTL cytotoxicity” value in data set [1] was “strongly induced antigen-specific CTL”.

Take `CSCC[C@H](NC(=O)CN)C(=O)N[C@@H](Cc1ccccc1)C(=O)N[C@@H](CC(=O)O)C(=O)N[C@@H](CO)C(=O)N[C@@H](CO)C(=O)N[C@H](C(=O)N[C@@H](CC(C)C)C(=O)N[C@@H](CS)C(=O)O)C(C)C` [peptide #13, Gly Met Phe Asp Ser Ser Val Leu Cys] (H-GMFDSSVLC-OH): in data set [3], the “vaccine effect of peptide-bound liposome prepared from single peptide” value is “remarkable vaccine effect”. Also, in data set [2] (ELISPOT), the “IFN-γ production due to the stimulation” value is given as “confirmed”. For the same compound, in data set [1], the “CTL cytotoxicity” value is reported as “strongly induced antigen-specific CTL” and the “induction of cytotoxic T cells” value was “confirmed”.

In the case of `CC[C@H](C)[C@H](N)C(=O)N[C@@H](CCSC)C(=O)N[C@H](C(=O)N[C@@H](CS)C(=O)N[C@@H](CCSC)C(=O)N[C@@H](CO)C(=O)N[C@@H](C)C(=O)N[C@@H](CC(=O)O)C(=O)N[C@@H](CC(C)C)C(=O)O)[C@@H](C)O` [peptide #19, Ile Met Thr Cys Met Ser Ala Asp Leu] (H-IMTCMSADL-OH), the “vaccine effect of peptide-bound liposome prepared from single peptide” value in data set [3] is “remarkable vaccine effect”. In addition, in data set [2] (ELISPOT), the “IFN-γ production due to the stimulation” value is given as “confirmed”. In addition, in data set [1], the “CTL cytotoxicity” value is “strongly induced antigen-specific CTL”.

Regarding IMACMSADL (Hepatitis C virus) [#19-3A], the “vaccine effect, comparison of #19 and #19-3A bound to liposome” value in data set [1] (liposome inoculated twice, FIG. 11) was “higher vaccine effect”.

As for “cys Met Ser Ala Asp Leu Glu Val Val (CMSADLEVV; Hepatitis C virus) [compound 17]”, in data set [2] (ELISPOT), the “IFN-γ production due to the stimulation” value was “confirmed”. In data set [1], the “CTL cytotoxicity” value is “strongly induced antigen-specific CTL” and the “induction of cytotoxic T cells” value is recorded as “confirmed”.
